According to PMC5428509, “Irreversible inhibition of BTK kinase by a novel highly selective inhibitor CHMFL-BTK-11 suppresses inflammatory response in rheumatoid arthritis model” (Scientific Reports, 2017):

Assays:
Assay in all cases: biochemical
Design in all cases: KinomeScan competition binding panel (DiscoveRx), percent of control at 1 uM
Conditions in all cases: read-out: Percent Control
[1] = molecular target: CAMK2B (Homo sapiens, UniProt Q13554)
Procedure, shortened: (§1)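 KinomeScan technology used to profile binding across a panel of 456 kinases and mutants.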

[2] = molecular target: T1, S6K1 (Homo sapiens, UniProt P23443)
T1 construct: gene RPS6KB1
T1 sequence (P23443 whole entry): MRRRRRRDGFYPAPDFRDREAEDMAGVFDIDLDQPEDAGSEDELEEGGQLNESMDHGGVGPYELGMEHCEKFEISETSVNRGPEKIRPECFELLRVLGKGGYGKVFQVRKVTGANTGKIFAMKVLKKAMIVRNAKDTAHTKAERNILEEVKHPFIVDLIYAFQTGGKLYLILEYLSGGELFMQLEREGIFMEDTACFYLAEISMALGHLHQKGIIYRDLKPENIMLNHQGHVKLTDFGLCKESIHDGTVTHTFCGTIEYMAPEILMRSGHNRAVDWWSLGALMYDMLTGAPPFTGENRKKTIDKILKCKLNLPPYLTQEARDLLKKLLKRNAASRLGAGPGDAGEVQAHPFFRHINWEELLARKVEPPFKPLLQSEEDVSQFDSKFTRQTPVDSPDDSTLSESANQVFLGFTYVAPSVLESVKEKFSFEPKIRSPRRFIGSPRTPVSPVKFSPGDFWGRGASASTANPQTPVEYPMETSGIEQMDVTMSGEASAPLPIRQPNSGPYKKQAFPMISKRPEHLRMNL
Procedure, shortened: as §1

[3] = molecular target: PRKD2 (Homo sapiens, UniProt Q9BZL6)
Chain of PRKD2 (Q9BZL6 whole entry): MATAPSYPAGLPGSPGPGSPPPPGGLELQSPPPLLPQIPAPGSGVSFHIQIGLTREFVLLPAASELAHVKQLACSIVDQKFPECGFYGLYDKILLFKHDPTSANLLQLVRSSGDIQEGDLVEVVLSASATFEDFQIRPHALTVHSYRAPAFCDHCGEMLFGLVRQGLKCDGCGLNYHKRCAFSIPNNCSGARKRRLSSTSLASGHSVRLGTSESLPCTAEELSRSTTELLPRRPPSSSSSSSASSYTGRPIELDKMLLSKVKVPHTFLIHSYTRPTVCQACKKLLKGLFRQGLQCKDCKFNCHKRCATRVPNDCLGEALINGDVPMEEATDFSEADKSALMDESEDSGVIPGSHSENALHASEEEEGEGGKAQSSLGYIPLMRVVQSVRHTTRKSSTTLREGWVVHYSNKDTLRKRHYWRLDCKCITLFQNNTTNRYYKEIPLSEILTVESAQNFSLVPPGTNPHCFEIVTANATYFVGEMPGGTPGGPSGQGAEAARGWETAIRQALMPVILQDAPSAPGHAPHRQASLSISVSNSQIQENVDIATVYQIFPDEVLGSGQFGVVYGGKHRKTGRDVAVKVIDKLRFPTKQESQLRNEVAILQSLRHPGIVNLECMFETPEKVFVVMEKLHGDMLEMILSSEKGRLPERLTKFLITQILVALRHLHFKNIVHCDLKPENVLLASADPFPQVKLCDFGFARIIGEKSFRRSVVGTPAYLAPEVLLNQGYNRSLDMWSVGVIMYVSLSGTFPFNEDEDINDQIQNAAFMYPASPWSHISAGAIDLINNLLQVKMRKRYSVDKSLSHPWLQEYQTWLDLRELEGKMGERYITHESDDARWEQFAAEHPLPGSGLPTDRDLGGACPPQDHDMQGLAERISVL
Procedure, shortened: as §1

[4] = molecular target: MAP4K5 (Homo sapiens, UniProt Q9Y4K4)
Procedure, shortened: as §1

[5] = molecular target: CSNK1D (Homo sapiens, UniProt P48730)
Procedure, shortened: as §1

[6] = molecular target: FYN (Homo sapiens, UniProt P06241)
Procedure, shortened: as §1

[7] = molecular target: MARK4 (Homo sapiens, UniProt Q96L34)
Procedure, shortened: as §1

[8] = molecular target: T2, RPS6KA4(Kin.Dom.1-N-terminal) (Homo sapiens, UniProt O75676)
T2 construct: Kin.Dom.1-N-terminal
Procedure, shortened: as §1

[9] = molecular target: LATS2 (Homo sapiens, UniProt Q9NRM7)
Procedure, shortened: as §1

[10] = molecular target: PDGFRA (Homo sapiens, UniProt P16234)
Procedure, shortened: as §1

[11] = molecular target: PAK4 (Homo sapiens, UniProt O96013)
Procedure, shortened: as §1

[12] = molecular target: SLK (Homo sapiens, UniProt Q9H2G2)
Procedure, shortened: as §1

[13] = molecular target: EPHA7 (Homo sapiens, UniProt Q15375)
Procedure, shortened: as §1

[14] = molecular target: MARK3 (Homo sapiens, UniProt P27448)
Chain of MARK3 (P27448 whole entry): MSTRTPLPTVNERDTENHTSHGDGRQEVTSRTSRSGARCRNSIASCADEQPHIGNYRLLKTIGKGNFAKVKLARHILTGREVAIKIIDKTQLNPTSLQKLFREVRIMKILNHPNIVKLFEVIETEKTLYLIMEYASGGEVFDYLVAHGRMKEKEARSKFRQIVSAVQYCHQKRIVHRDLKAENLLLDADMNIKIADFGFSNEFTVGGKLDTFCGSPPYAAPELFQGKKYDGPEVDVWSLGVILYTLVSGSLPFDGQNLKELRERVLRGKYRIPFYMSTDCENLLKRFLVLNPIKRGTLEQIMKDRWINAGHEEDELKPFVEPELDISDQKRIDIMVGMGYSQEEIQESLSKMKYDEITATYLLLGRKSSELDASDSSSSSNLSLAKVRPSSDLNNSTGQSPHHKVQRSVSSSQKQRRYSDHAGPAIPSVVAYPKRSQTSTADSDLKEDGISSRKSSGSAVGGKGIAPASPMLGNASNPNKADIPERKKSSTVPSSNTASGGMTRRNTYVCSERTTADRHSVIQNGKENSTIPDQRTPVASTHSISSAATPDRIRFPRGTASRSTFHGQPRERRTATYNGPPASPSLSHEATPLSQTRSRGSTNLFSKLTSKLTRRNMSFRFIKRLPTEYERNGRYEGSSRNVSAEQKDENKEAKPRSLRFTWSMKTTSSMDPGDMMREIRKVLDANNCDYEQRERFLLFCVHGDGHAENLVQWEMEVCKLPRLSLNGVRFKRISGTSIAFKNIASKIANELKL
Procedure, shortened: as §1

[15] = molecular target: PIP5K1C (Homo sapiens, UniProt O60331)
Chain of PIP5K1C (O60331 whole entry): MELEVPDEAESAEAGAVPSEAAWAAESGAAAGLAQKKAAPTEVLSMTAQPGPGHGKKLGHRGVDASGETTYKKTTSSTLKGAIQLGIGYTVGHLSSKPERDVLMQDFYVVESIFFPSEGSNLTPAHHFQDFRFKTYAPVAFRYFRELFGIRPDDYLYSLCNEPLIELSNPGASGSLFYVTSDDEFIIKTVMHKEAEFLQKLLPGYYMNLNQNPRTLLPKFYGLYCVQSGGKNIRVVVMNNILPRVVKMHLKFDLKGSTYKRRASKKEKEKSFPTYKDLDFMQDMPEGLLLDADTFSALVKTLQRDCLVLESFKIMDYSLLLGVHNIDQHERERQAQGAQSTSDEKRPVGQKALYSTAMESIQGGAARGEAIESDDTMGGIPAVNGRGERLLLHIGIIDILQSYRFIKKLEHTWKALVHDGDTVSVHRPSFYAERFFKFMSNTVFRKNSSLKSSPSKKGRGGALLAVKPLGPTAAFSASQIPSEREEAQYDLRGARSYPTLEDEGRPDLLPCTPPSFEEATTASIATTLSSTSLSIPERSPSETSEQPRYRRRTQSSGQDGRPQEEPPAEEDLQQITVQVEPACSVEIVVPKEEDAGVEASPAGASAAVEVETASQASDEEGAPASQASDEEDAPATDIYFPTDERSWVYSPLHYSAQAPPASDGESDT
Procedure, shortened: as §1

[16] = molecular target: T3, FAK (Homo sapiens, UniProt Q05397)
T3 construct: gene PTK2
Procedure, shortened: as §1

[17] = molecular target: CSNK1E (Homo sapiens, UniProt P49674)
Procedure, shortened: as §1

[18] = molecular target: HIPK3 (Homo sapiens, UniProt Q9H422)
Procedure, shortened: as §1

[19] = molecular target: PIM3 (Homo sapiens, UniProt Q86V86)
Procedure, shortened: as §1

[20] = molecular target: EPHA4 (Homo sapiens, UniProt P54764)
Chain of EPHA4 (P54764 whole entry): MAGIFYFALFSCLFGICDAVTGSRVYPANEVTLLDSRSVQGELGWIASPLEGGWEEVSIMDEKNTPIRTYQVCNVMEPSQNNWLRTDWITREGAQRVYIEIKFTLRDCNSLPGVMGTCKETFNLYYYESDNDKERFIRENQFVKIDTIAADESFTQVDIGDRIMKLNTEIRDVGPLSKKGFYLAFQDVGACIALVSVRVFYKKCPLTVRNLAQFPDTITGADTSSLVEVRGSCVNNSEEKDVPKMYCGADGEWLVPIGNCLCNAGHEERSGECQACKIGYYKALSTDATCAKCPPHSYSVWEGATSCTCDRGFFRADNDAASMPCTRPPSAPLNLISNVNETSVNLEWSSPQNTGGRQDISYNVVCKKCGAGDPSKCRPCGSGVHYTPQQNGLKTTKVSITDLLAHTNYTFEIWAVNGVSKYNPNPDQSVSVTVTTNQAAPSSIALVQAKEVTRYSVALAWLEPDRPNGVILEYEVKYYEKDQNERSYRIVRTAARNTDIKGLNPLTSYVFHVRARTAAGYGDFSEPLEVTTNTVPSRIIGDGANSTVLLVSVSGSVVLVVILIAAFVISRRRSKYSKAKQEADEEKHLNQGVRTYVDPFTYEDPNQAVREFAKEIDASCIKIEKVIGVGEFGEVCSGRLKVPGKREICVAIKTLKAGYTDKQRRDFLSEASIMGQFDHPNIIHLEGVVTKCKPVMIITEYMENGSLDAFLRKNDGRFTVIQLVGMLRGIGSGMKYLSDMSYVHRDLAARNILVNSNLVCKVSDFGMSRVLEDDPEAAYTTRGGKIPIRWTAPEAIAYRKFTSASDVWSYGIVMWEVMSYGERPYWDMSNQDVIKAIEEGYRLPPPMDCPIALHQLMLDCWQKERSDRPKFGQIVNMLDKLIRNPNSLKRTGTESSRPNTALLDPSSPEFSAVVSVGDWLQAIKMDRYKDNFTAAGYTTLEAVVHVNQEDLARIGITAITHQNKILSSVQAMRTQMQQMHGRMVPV
Procedure, shortened: as §1

[21] = molecular target: PIK3CB (Homo sapiens, UniProt P42338)
Chain of PIK3CB (P42338 whole entry): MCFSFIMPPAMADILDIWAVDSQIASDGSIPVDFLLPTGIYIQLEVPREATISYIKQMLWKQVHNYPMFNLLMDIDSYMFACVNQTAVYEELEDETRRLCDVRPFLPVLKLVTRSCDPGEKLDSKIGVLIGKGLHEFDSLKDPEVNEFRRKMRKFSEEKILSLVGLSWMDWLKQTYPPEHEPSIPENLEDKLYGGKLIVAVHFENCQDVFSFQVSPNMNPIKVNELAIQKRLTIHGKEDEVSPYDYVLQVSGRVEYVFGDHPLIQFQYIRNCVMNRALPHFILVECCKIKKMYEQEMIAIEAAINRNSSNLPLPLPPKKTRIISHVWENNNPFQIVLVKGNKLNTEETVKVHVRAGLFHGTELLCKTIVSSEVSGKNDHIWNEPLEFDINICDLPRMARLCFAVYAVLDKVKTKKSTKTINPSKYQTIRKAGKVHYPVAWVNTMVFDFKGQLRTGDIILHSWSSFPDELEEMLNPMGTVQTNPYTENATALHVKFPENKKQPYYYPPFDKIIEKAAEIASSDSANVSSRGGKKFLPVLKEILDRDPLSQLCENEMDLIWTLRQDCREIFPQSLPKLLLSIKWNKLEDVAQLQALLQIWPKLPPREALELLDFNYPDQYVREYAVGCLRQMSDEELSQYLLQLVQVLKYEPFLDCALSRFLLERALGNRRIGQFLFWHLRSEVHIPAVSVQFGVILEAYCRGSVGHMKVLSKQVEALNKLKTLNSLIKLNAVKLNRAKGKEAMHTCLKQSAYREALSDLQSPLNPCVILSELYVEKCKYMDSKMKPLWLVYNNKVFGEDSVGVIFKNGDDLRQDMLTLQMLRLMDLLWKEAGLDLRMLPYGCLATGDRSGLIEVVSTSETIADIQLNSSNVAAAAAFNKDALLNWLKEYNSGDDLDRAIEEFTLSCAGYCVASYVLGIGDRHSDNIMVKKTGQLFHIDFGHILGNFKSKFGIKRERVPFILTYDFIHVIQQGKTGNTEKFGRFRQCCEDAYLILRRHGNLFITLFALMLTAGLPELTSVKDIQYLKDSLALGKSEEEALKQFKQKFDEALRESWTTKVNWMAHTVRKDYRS
Procedure, shortened: as §1

[22] = molecular target: T4, OSR1 (Homo sapiens, UniProt O95747)
T4 construct: gene OXSR1
Procedure, shortened: as §1

[23] = molecular target: FLT3(R834Q) (Homo sapiens, UniProt P36888, R834Q)
Procedure, shortened: as §1

[24] = molecular target: T5, MINK (Homo sapiens, UniProt Q8N4C8)
T5 construct: gene MINK1
Procedure, shortened: as §1

[25] = molecular target: EPHA5 (Homo sapiens, UniProt P54756)
Procedure, shortened: as §1

## C=CC(=O)Nc1cc(-n2c(=O)ccc3cnc4ccc(-n5cccn5)cc4c32)ccc1C [CHMFL-BTK-11]
[1]
  remaining binding at 1 µM: 100%
[2]
  remaining binding at 1 µM: 100%
[3]
  remaining binding at 1 µM: 100%
[4]
  remaining binding at 1 µM: 100%
[5]
  remaining binding at 1 µM: 100%
[6]
  remaining binding at 1 µM: 99%
[7]
  remaining binding at 1 µM: 79%
[8]
  remaining binding at 1 µM: 100%
[9]
  remaining binding at 1 µM: 100%
[10]
  remaining binding at 1 µM: 100%
[11]
  remaining binding at 1 µM: 95%
[12]
  remaining binding at 1 µM: 100%
[13]
  remaining binding at 1 µM: 97%
[14]
  remaining binding at 1 µM: 100%
[15]
  remaining binding at 1 µM: 82%
[16]
  remaining binding at 1 µM: 100%
[17]
  remaining binding at 1 µM: 100%
[18]
  remaining binding at 1 µM: 100%
[19]
  remaining binding at 1 µM: 95%
[20]
  remaining binding at 1 µM: 100%
[21]
  remaining binding at 1 µM: 100%
[22]
  remaining binding at 1 µM: 96%
[23]
  remaining binding at 1 µM: 99%
[24]
  remaining binding at 1 µM: 64%
[25]
  remaining binding at 1 µM: 100%
